Target: PIK3CG (human) (UniProt P48736)
Experiment: Inhibition of PIK3CG Kinase Activity

PIK3CG (human), sequence (P48736 whole entry, looked up): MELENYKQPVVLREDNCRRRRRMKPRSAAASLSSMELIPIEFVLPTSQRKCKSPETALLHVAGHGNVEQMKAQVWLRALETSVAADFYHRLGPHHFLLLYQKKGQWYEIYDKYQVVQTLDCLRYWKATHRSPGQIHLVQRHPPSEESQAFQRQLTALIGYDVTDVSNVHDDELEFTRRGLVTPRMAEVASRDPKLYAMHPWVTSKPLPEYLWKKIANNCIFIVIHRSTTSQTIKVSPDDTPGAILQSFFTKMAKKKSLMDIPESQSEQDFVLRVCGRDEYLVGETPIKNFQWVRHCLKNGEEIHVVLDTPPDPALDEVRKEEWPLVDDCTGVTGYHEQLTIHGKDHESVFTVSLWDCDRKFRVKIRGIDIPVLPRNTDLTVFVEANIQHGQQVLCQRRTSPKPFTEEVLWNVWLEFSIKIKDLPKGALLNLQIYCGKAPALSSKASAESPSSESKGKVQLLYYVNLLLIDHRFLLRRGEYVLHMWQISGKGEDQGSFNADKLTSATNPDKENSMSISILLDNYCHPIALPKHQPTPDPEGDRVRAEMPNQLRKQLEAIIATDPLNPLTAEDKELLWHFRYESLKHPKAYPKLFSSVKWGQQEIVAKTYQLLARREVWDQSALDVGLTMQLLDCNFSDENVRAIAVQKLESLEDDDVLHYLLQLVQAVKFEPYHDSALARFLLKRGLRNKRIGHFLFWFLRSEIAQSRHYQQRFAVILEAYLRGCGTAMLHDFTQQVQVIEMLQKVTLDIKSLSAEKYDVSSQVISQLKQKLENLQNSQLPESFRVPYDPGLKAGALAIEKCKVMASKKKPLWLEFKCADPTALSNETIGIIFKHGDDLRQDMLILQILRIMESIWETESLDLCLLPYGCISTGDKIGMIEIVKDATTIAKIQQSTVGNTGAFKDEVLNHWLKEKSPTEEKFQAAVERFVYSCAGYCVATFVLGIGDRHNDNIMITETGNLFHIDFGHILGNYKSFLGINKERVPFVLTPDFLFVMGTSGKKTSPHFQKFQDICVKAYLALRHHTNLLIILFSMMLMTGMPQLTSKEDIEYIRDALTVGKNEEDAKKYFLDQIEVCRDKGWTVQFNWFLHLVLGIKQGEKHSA

CC(C)COc1cncc(-c2ccc3nc(N)nn3c2)c1
IC50: < 10 µM

Nc1nc2ccc(-c3cncc(NS(=O)(=O)Cc4ccc(C(F)(F)F)cc4)c3)cn2n1
IC50: < 10 µM

CN(C)CCNS(=O)(=O)c1cccc(-c2ccc3nc(N)nn3c2)c1
IC50: < 10 µM

CCCNS(=O)(=O)c1cncc(-c2cc(F)c3nc(N)nn3c2)c1
IC50: < 10 µM

CN(Cc1cccc(Cl)c1Cl)S(=O)(=O)c1cncc(-c2ccc3nc(N)nn3c2)c1
IC50: < 10 µM

Nc1nc2ccc(-c3cncc(NS(=O)(=O)c4cccc(C(F)(F)F)c4)c3)cn2n1
IC50: < 10 µM

Nc1nc2ccc(-c3cncc(Oc4ccccc4)c3)cn2n1
IC50: < 10 µM

Nc1nc2ccc(-c3cncc(OCc4ccccc4)c3)cn2n1
IC50: < 10 µM

CS(=O)(=O)c1cncc(-c2ccc3nc(N)nn3c2)c1
IC50: < 10 µM

Nc1nc2ccc(-c3cncnc3)cn2n1
IC50: < 10 µM

Nc1nc2ccc(-c3cncc(S(=O)(=O)Nc4ccc(Cl)cc4)c3)cn2n1
IC50: < 10 µM

Nc1nc2ccc(-c3cncc(S(=O)(=O)Nc4ccc(F)cc4F)c3)cn2n1
IC50: < 10 µM

Nc1nc2ccc(-c3cccc(O)c3)cn2n1
IC50: < 10 µM

Nc1nc2ccc(-c3cncc(NS(=O)(=O)c4ccc(Cl)cc4)c3)cn2n1
IC50: < 10 µM

Nc1nc2ccc(-c3cncc(S(=O)(=O)NC4CCCCC4)c3)cn2n1
IC50: < 10 µM

CC(C)(C)CS(=O)(=O)c1cncc(-c2ccc3nc(N)nn3c2)c1
IC50: < 10 µM

CC(C)(C)NC(=O)c1cncc(-c2ccc3nc(N)nn3c2)c1
IC50: < 10 µM

Nc1nc2ccc(-c3cncc(NS(=O)(=O)c4cc(C(F)(F)F)cc(C(F)(F)F)c4)c3)cn2n1
IC50: < 10 µM

Nc1nc2ccc(-c3cncc(S(=O)(=O)Nc4ccc(C(F)(F)F)cc4)c3)cn2n1
IC50: < 10 µM

Nc1nc2ccc(-c3cncc(S(=O)(=O)NC4CC4)c3)cn2n1
IC50: < 10 µM

Nc1nc2ccc(-c3cncc(S(=O)(=O)N4CCC4)c3)cn2n1
IC50: < 10 µM

Nc1nc2ccc(-c3cncc(S(=O)(=O)NCc4cccc(Cl)c4Cl)c3)cn2n1
IC50: < 10 µM

Cc1cccc(-c2ccc3nc(N)nn3c2)c1
IC50: < 10 µM

CNS(=O)(=O)c1cncc(-c2ccc3nc(N)nn3c2)c1
IC50: < 10 µM

COc1ccc(-c2ccc3nc(NC(N)=O)nn3c2)cc1OC
IC50: < 10 µM

Nc1nc2ccc(-c3cncc(S(=O)(=O)Nc4cccc(OC(F)(F)F)c4)c3)cn2n1
IC50: < 10 µM

Nc1nc2ccc(-c3cncc(S(=O)(=O)Nc4cc(F)cc(F)c4)c3)cn2n1
IC50: < 10 µM

CN(C(C)(C)C)S(=O)(=O)c1cncc(-c2ccc3nc(N)nn3c2)c1
IC50: < 10 µM

NCCNS(=O)(=O)c1cccc(-c2ccc3nc(N)nn3c2)c1
IC50: < 10 µM

Nc1nc2ccc(-c3cccc(Cl)c3)cn2n1
IC50: < 10 µM

Nc1nc2ccc(-c3cccs3)cn2n1
IC50: < 10 µM

Nc1nc2ccc(-c3cncc(S(=O)(=O)NCCC(F)(F)F)c3)cn2n1
IC50: < 10 µM

Nc1nc2ccc(-c3cncc(S(=O)(=O)Nc4cccc(OC(F)F)c4)c3)cn2n1
IC50: < 10 µM

Nc1nc2ccc(-c3cccc(S(=O)(=O)NCC(=O)O)c3)cn2n1
IC50: < 10 µM

Nc1nc2ccc(-c3cncc(NS(=O)(=O)c4cccc5ccccc45)c3)cn2n1
IC50: < 10 µM

NCCNS(=O)(=O)c1cncc(-c2ccc3nc(N)nn3c2)c1
IC50: < 10 µM

COc1ccc(-c2ccc3nc(N)nn3c2)cc1OC
IC50: < 10 µM

CCCNS(=O)(=O)c1cncc(-c2ccc3nc(N)nn3c2)c1
IC50: < 10 µM

CN1CCN(S(=O)(=O)c2cncc(-c3ccc4nc(N)nn4c3)c2)CC1
IC50: < 10 µM

CN(C)S(=O)(=O)c1cncc(-c2ccc3nc(N)nn3c2)c1
IC50: < 10 µM

COc1cccc(-c2ccc3nc(N)nn3c2)c1
IC50: < 10 µM

CC(C)(NS(=O)(=O)c1cncc(-c2ccc3nc(N)nn3c2)c1)C(F)(F)F
IC50: < 10 µM

COc1ccc(-c2cn3nc(N)nc3cc2C)cc1OC
IC50: < 10 µM

CC(C)c1ccccc1NS(=O)(=O)c1cncc(-c2ccc3nc(N)nn3c2)c1
IC50: < 10 µM

Nc1nc2ccc(-c3ccc4c(c3)OCCO4)cn2n1
IC50: < 10 µM

Nc1nc2ccc(-c3cccc(S(=O)(=O)NCCCCC(=O)O)c3)cn2n1
IC50: < 10 µM

Nc1nc2ccc(-c3cncc(S(=O)(=O)Nc4cccc(F)c4)c3)cn2n1
IC50: < 10 µM

COc1ccc(-c2cc(F)c3nc(N)nn3c2)cc1OC
IC50: < 10 µM

Nc1nc2ccc(-c3cncc(SCc4ccccc4)c3)cn2n1
IC50: < 10 µM

Nc1nc2ccc(-c3cncc(S(=O)(=O)NC4CCC(O)CC4)c3)cn2n1 (stereo unspecified)
IC50: < 10 µM

CCCCNS(=O)(=O)c1cncc(-c2ccc3nc(N)nn3c2)c1
IC50: < 10 µM

CN(C)CCN(C)S(=O)(=O)c1cncc(-c2ccc3nc(N)nn3c2)c1
IC50: < 10 µM

COc1ccc(-c2ccc3nc(N)nn3c2)cc1
IC50: < 10 µM

Nc1nc2ccc(-c3cncc(S(=O)(=O)N4CCOCC4)c3)cn2n1
IC50: < 10 µM

Nc1nc2ccc(-c3cccc(C(=O)O)c3)cn2n1
IC50: < 10 µM

Nc1nc2ccc(-c3cncc(S(=O)(=O)NCC4CCOCC4)c3)cn2n1
IC50: < 10 µM

Nc1nc2ccc(-c3cncc(S(=O)(=O)NC4CCCC4)c3)cn2n1
IC50: < 10 µM

CC1(NS(=O)(=O)c2cncc(-c3ccc4nc(N)nn4c3)c2)CCC1
IC50: < 10 µM

Nc1nc2ccc(-c3cncc(S(=O)(=O)NC4CCOCC4)c3)cn2n1
IC50: < 10 µM

Nc1nc2ccc(-c3cncc(S(=O)(=O)NCC(F)(F)F)c3)cn2n1
IC50: < 10 µM

Nc1nc2ccc(-c3cncc(S(=O)(=O)NCc4ccccc4)c3)cn2n1
IC50: < 10 µM

Nc1nc2c(F)cc(-c3cncc(S(=O)(=O)NCC(F)(F)F)c3)cn2n1
IC50: < 10 µM

Nc1nc2ccc(-c3cncc(S(=O)(=O)N4CCC(F)(F)CC4)c3)cn2n1
IC50: < 10 µM

Nc1nc2c(F)cc(-c3cncc(S(=O)(=O)N4CCC4)c3)cn2n1
IC50: < 10 µM

Nc1nc2ccc(-c3cncc(S(=O)(=O)NCC4CCCC4)c3)cn2n1
IC50: < 10 µM

COc1cc(-c2ccc3nc(N)nn3c2)cc(OC)c1OC
IC50: < 10 µM

CC(C)(C)NS(=O)(=O)c1cncc(-c2ccc3nc(N)nn3c2)c1
IC50: < 10 µM

CCNc1cccc(-c2ccc3nc(N)nn3c2)c1
IC50: < 10 µM

Nc1nc2ccc(-c3cccc(F)c3)cn2n1
IC50: < 10 µM

Nc1nc2ccc(-c3cncc(S(=O)(=O)NCc4ccc(Cl)c(Cl)c4)c3)cn2n1
IC50: < 10 µM

Nc1nc2ccc(-c3cncc(NS(=O)(=O)Cc4ccc(Cl)cc4)c3)cn2n1
IC50: < 10 µM

CC(C)(CN1CCCC1)NS(=O)(=O)c1cncc(-c2ccc3nc(N)nn3c2)c1
IC50: < 10 µM

Nc1nc2ccc(-c3cncc(NS(=O)(=O)c4ccc5ccccc5c4)c3)cn2n1
IC50: < 10 µM

Nc1nc2ccc(-c3cncc(S(=O)(=O)N4CCCCCC4)c3)cn2n1
IC50: < 10 µM

Cn1cc(-c2ccc3nc(N)nn3c2)cn1
IC50: < 10 µM

COc1cc(-c2ccc3nc(N)nn3c2)ccc1O
IC50: < 10 µM

Nc1nc2ccc(-c3cncc(S(=O)(=O)Nc4ccccc4F)c3)cn2n1
IC50: < 10 µM

Nc1nc2ccc(-c3cncc(S(=O)(=O)NCc4ccc(F)cc4)c3)cn2n1
IC50: < 10 µM

CCCCN(C)S(=O)(=O)c1cncc(-c2ccc3nc(N)nn3c2)c1
IC50: < 10 µM

Nc1nc2ccc(-c3ccc(F)c(F)c3)cn2n1
IC50: < 10 µM

Nc1nc2ccc(-c3cncc(NS(=O)(=O)c4ccc(C(F)(F)F)cc4)c3)cn2n1
IC50: < 10 µM

CN(Cc1ccccc1)S(=O)(=O)c1cncc(-c2ccc3nc(N)nn3c2)c1
IC50: < 10 µM

Nc1nc2ccc(-c3cncc(S(=O)(=O)NCCCC(F)(F)F)c3)cn2n1
IC50: < 10 µM

Nc1nc2ccc(-c3cncc(Cl)c3)cn2n1
IC50: < 10 µM

Nc1nc2ccc(-c3ccc(F)cc3)cn2n1
IC50: < 10 µM

Nc1nc2ccc(-c3cncc(S(=O)(=O)NCCN4CCNC4=O)c3)cn2n1
IC50: < 10 µM

Nc1nc2ccc(-c3cncc(S(=O)(=O)NCC4CC4)c3)cn2n1
IC50: < 10 µM

CC(C)(NS(=O)(=O)c1cncc(-c2ccc3nc(N)nn3c2)c1)c1ccccc1
IC50: < 10 µM

CC(C)NS(=O)(=O)c1cncc(-c2ccc3nc(N)nn3c2)c1
IC50: < 10 µM

Nc1nc2ccc(-c3cncc(NS(=O)(=O)c4ccccc4C(F)(F)F)c3)cn2n1
IC50: < 10 µM

CN(c1cccc(C(F)(F)F)c1)S(=O)(=O)c1cncc(-c2ccc3nc(N)nn3c2)c1
IC50: < 10 µM

Nc1nc2ccc(-c3cncc(S(=O)(=O)N4CCNCC4)c3)cn2n1
IC50: < 10 µM

NC(=O)c1ccc(-c2ccc3nc(N)nn3c2)cc1
IC50: < 10 µM

Nc1nc2ccc(-c3cncc(S(=O)(=O)Nc4ccc(OC(F)F)cc4)c3)cn2n1
IC50: < 10 µM

Nc1nc2ccc(-c3cncc(NS(=O)(=O)Cc4ccccc4C(F)(F)F)c3)cn2n1
IC50: < 10 µM

Nc1nc2ccc(-c3cncc(S(=O)(=O)Nc4ccccc4)c3)cn2n1
IC50: < 10 µM

COc1ccc(-c2ccc3nc(N)nn3c2)cc1O
IC50: < 10 µM

COc1ccc(-c2cc(C)c3nc(N)nn3c2)cc1OC
IC50: < 10 µM

Nc1nc2ccc(-c3cncc(S(=O)(=O)Nc4ccccc4C(F)(F)F)c3)cn2n1
IC50: < 10 µM

COc1cc(-c2ccc3nc(N)nn3c2)ccc1OC(C)C
IC50: < 10 µM

Nc1nc2ccc(-c3cncc(C(F)(F)F)c3)cn2n1
IC50: < 10 µM

COc1ccccc1-c1ccc2nc(N)nn2c1
IC50: < 10 µM

CC(C)c1cccc(NS(=O)(=O)c2cncc(-c3ccc4nc(N)nn4c3)c2)c1
IC50: < 10 µM

Nc1nc2ccc(-c3ccncc3)cn2n1
IC50: < 10 µM

Nc1nc2ccc(-c3cccc(C(F)(F)F)c3)cn2n1
IC50: < 10 µM

CC(C)(C)CNS(=O)(=O)c1cncc(-c2ccc3nc(N)nn3c2)c1
IC50: < 10 µM

CC(=O)Nc1cccc(-c2ccc3nc(N)nn3c2)c1
IC50: < 10 µM

Nc1nc2ccc(-c3cncc(S(=O)(=O)N4CCC(F)CC4)c3)cn2n1
IC50: < 10 µM

CC(C)CCNS(=O)(=O)c1cncc(-c2ccc3nc(N)nn3c2)c1
IC50: < 10 µM

Nc1nc2ccc(-c3ccc4c(c3)OCO4)cn2n1
IC50: < 10 µM

Nc1nc2ccc(-c3cncc(NS(=O)(=O)c4cccc(OC(F)(F)F)c4)c3)cn2n1
IC50: < 10 µM

Nc1nc2ccc(-c3cncc(S(=O)(=O)N4Cc5ccccc5C4)c3)cn2n1
IC50: < 10 µM

Nc1nc2ccc(-c3cncc(S(=O)(=O)NCC4CCC4)c3)cn2n1
IC50: < 10 µM

Nc1nc2ccc(-c3cncc(S(=O)(=O)NCC4CCCCCC4)c3)cn2n1
IC50: < 10 µM

CC(C)c1ccc(S(=O)(=O)Nc2cncc(-c3ccc4nc(N)nn4c3)c2)cc1
IC50: < 10 µM

Nc1nc2ccc(-c3ccc(S(N)(=O)=O)cc3)cn2n1
IC50: < 10 µM

From the Kinase Knowledgebase extract (Sharma et al. 2016)
